Data published in US8859465B2, “Synergistic herbicidal composition containing penoxsulam and glufosinate-ammonium” (Dow AgroSciences LLC, priority 2011, dated 2014).

Tests used:
Assay type in all cases: in vivo
[1] = tested on: Japanese bulrush (Schoenoplectus juncoides, SCPJU); test: Postemergence herbicidal activity of mixtures under field conditions in wet-seeded rice, SCPJU
Description: (§1) Evaluation of Postemergence Herbicidal Activity of Mixtures under Field Conditions Methodology
(§2) Field trials were conducted in rice using standard herbicide small plot research methodology. Plot size was 2 square meters (m^2) using 1.6 meter (m) diameter rings placed into the rice paddy soil with capability for flooding to maintain good rice cultural practices and rice growing conditions. There were 3 replicates per treatment. Rice was Japonica type that was sown as wet-seeded rice (pre-germinated) into the saturated soil in the rings as per normal cultural practices. The rice crop was grown using normal cultural practices for fertilization, seeding, watering, flooding and maintenance to ensure good growth of the crop and the weeds under seeded rice conditions in Taiwan. Ring plot water conditions were maintained under saturated soil conditions after planting. Just prior to treatment application, any remaining plot water was drained to maintain saturated soil in ring plot. Treatments were applied by backpack using compressed air at 30 pounds per square inch (psi) using Flat Fan nozzles at a spray volume of 450 Liters/hectare (L/ha). Penoxsulam was applied as the Fencer® 25OD formulation. Glufosinate-ammonium was applied as the Basta® 135 SL formulation.
(§3) All treatments in the field trials were applied by spraying the treatments on the rice and weeds and evaluated at 7, 14, or 28 days after application (DAA). Commercially available products of penoxsulam (FENCER 25OD) and glufosinate-ammonium (BASTA 135 SL) were mixed in water and sprayed onto the rice and weeds with the appropriate formulated product amounts to treat 2 m^2 to achieve the desired application rates based on unit area of application (hectare).
(§4) The treated and control plots were rated blind at various intervals after application, with the last evaluation taken 28 days after application. Ratings were based on percent (%) visual weed control, where 0 corresponds to no control and 100 corresponds to complete control.
(§5) Colby's equation was used to determine the herbicidal effects expected from the mixtures (Colby, S. R. Calculation of the synergistic and antagonistic response of herbicide combinations. Weeds 1967 15, 20-22). Results are shown where P<0.05 according to Colby's method of analysis.
(§6) The following equation was used to calculate the expected activity of mixtures containing two active ingredients, A and B: Expected=A+B−(A×B/100)
(§7) A=observed efficacy of active ingredient A at the same concentration as used in the mixture;
(§8) B=observed efficacy of active ingredient B at the same concentration as used in the mixture.

[2] = tested on: barnyardgrass (Echinochloa crus-galli, ECHCG); test: Postemergence herbicidal activity of mixtures under field conditions in wet-seeded rice, ECHCG
Description: as §1, §2, §3, §4, §5, §6, §7, §8

[3] = tested on: smallflower umbrella sedge (Cyperus difformis, CYPDI); test: Postemergence herbicidal activity of mixtures under field conditions in wet-seeded rice, CYPDI; conditions: 14 DAA
Description: as §1, §2, §3, §4, §5, §6, §7, §8

[4] = tested on: monochoria (Monochoria vaginalis, MOOVA); test: Postemergence herbicidal activity of mixtures under field conditions in wet-seeded rice, MOOVA; conditions: 14 DAA
Description: as §1, §2, §3
The treated and control plots were rated blind at various intervals after application, with the last evaluation taken 28 days after application. Ratings were based on percent (%) visual weed control, where 0 corresponds to no control and 100 corresponds to complete control. […]

[5] = 28 DAA, penoxsulam 5 grams ai/ha
[6] = 28 DAA, glufosinate-ammonium 35 grams ai/ha
[7] = 28 DAA, glufosinate-ammonium 70 grams ai/ha
[8] = 28 DAA, glufosinate-ammonium 140 grams ai/ha
[9] = glufosinate-ammonium 70 grams ai/ha

Molecule: COc1cnc(OC)n2nc(NS(=O)(=O)c3c(OCC(F)F)cccc3C(F)(F)F)nc12 [Penoxsulam, 2-(2,2-difluoroethoxy)-N-(5,8-dimethoxy-[1,2,4]triazolo[1,5-c]pyrimidin-2-yl)-6-(trifluoromethyl)benzenesulfonamide]
- SCPJU (% Control) Obs ([1]; 7 DAA, penoxsulam 5 grams ai/ha): 40%
- SCPJU (% Control) Obs ([1]; 7 DAA, penoxsulam 20 grams ai/ha): 92%
- SCPJU (% Control) Obs [1, 5]: 0%
- ECHCG (% Control) Obs ([2]; 14 DAA, penoxsulam 5 grams ai/ha): 53%
- ECHCG (% Control) Obs ([2]; 14 DAA, penoxsulam 10 grams ai/ha): 62%
- ECHCG (% Control) Obs [2, 5]: 30%
- ECHCG (% Control) Obs ([2]; 28 DAA, penoxsulam 10 grams ai/ha): 42%
- ECHCG (% Control) Obs ([2]; 28 DAA, penoxsulam 20 grams ai/ha): 87%
- CYPDI (% Control) Obs ([3]; penoxsulam 5 grams ai/ha): 73%
- MOOVA (% Control) Obs ([4]; penoxsulam 5 grams ai/ha): 37%

Molecule: 2-amino-4-(hydroxymethylphosphinyl)butanoic acid [Glufosinate-ammonium]
- SCPJU (% Control) Obs ([1]; 7 DAA, glufosinate-ammonium 18 grams ai/ha): 0%
- SCPJU (% Control) Obs ([1]; 7 DAA, glufosinate-ammonium 35 grams ai/ha): 0%
- SCPJU (% Control) Obs ([1]; 7 DAA, glufosinate-ammonium 70 grams ai/ha): 0%
- SCPJU (% Control) Obs ([1]; 7 DAA, glufosinate-ammonium 140 grams ai/ha): 0%
- SCPJU (% Control) Obs ([1]; 28 DAA, glufosinate-ammonium 18 grams ai/ha): 0%
- SCPJU (% Control) Obs [1, 6]: 0%
- SCPJU (% Control) Obs [1, 7]: 0%
- SCPJU (% Control) Obs [1, 8]: 0%
- ECHCG (% Control) Obs ([2]; 14 DAA, glufosinate-ammonium 35 grams ai/ha): 0%
- ECHCG (% Control) Obs ([2]; 14 DAA, glufosinate-ammonium 70 grams ai/ha): 0%
- ECHCG (% Control) Obs ([2]; 14 DAA, glufosinate-ammonium 140 grams ai/ha): 27%
- ECHCG (% Control) Obs [2, 6]: 0%
- ECHCG (% Control) Obs [2, 7]: 0%
- ECHCG (% Control) Obs [2, 8]: 0%
- ECHCG (% Control) Obs ([2]; 28 DAA, glufosinate-ammonium 280 grams ai/ha): 13%
- CYPDI (% Control) Obs ([3]; glufosinate-ammonium 35 grams ai/ha): 0%
- CYPDI (% Control) Obs [3, 9]: 0%
- CYPDI (% Control) Obs ([3]; glufosinate-ammonium 140 grams ai/ha): 0%
- MOOVA (% Control) Obs ([4]; glufosinate-ammonium 18 grams ai/ha): 0%
- MOOVA (% Control) Obs [4, 9]: 0%
